From US20150045410A1, “METHOD OF REGULATING CFTR EXPRESSION AND PROCESSING” (University of Iowa Research Foundation, priority 2012, published 2015)

Test system: SIN3A 3′UTR
Test: Dual-luciferase reporter assay (psiCHECK-2 vector with SIN3A 3′UTR) in HEK293T cells
Type: cell-based
Conditions: HEK293T cells co-transfected with psiCHECK-2 and increasing concentrations of mimic; vs Scr
Description: FIG. 5: miR-138 regulates SIN3A in a dose-dependent and site-specific manner. HEK293T cells were co-transfected with the psiCHECK-2 vector (containing the SIN3A 3′UTR) and increasing concentrations of Scr or miR-138 mimic (Scr: non-targeting control oligonucleotide). To test site-specificity, the two predicted binding sites of miR-138 on SIN3A 3′UTR cloned in the psiCHECK-2 vector were mutated and the experiment repeated. Error bars indicate mean±SE; (n=4, 3 replicates each); *P<0.01, relative to Scr.
The 3′UTR of SIN3A was cloned into the Xho1/Not1 restriction enzyme sites in the 3′UTR of Renilla luciferase in the psiCHECK™-2 vector (Promega). HEK293T cells were cotransfected with 20 ng of psiCHECK-2 vector and different concentrations of miR-138 mimic. The Lipofectamine™ RNAiMAX (Invitrogen) reverse transfection protocol was used as described above. The miR-138 binding sites on the SIN3A 3′UTR were mutated using the site-directed, ligase-independent mutagenesis (SLIM) protocol (Chiu, J., Tillett, D., Dawes, I. W. & March, P. E. Site-directed, Ligase-Independent Mutagenesis (SLIM) for highly efficient mutagenesis of plasmids greater than 8 kb. J Microbiol. Methods 73, 195-198 (2008); Chiu, J., March, P. E., Lee, R. & Tillett, D. Site-directed, Ligase-Independent Mutagenesis (SLIM): a single-tube methodology approaching 100% efficiency in 4 h. Nucleic Acids Res. 32, (2004)). […]

**Q.** How did the “SIN3A expression (Renilla luciferase with SIN3A 3′UTR, normalized to firefly luciferase)” value turn out when “miR-138 mimic: synthetic modified RNA duplex, sense SEQ ID NO: 4, antisense SEQ ID NO: 5, showing miR-138-like activity” was run?
**A.** repressed SIN3A expression in a dose-dependent manner
